Source: patent US20100021918A1, “METHOD FOR ASSAYING ACTION OF ANTITUMOR AGENT USING SPLICING DEFECTS AS INDEX” (Eisai R&D Management Co., Ltd., priority 2007, published 2010)

Tested on: human colon carcinoma cell strain WiDr
Assay: Microarray analysis (2), reviewed conditions, intron expression, Table 3
Format: cell-based
Conditions: treated vs control; for Fold Change (change in expression level of intron probe set): WiDr cells
Description: WiDr cells were first suspended in RPMI1640 medium (containing 10% FBS, penicillin, and streptomycin) and seeded in a 10 cm dish (2×10^6 cells/dish). After an overnight culture in an incubator with 5% carbon dioxide gas at 37° C., the medium was changed with medium containing 14 nM of (8E,12E,14E)-7-((4-cycloheptylpiperazin-1-yl)carbonyl)oxy-3,6,16,21-tetrahydroxy-6,10,12,16,20-pentamethyl-18,19-epoxytricosa-8,12,14-trien-11-olide or containing vehicle alone. After cultured for additional six hours, TRI reagent (SIGMA) were added to the cells and the cells were harvested. RNA was purified in accordance with the protocol of TRI reagent, followed by further purification with RNeasy (QIAGEN). Absorbance at 260 nm was measured to quantify an amount of RNA. This experiment was repeated three times and RNA samples (n=3) were prepared.
Ribosomal RNA was removed from 1 μg of each total RNA of control cells (n=3) and cells with the treatment (n=3) by using RiboMinus Human/Mouse Transcriptome Isolation Kit (Invitrogen). Single stranded cDNA synthesis, double stranded cDNA synthesis, cRNA synthesis, second single stranded cDNA synthesis, cDNA fragmentation, and cDNA labeling in order were carried out for the total RNA from which ribosomal RNA was removed, by using GeneChip Whole Transcript Sense Target Labeling and Control Reagents (Affymetrix) to make a cDNA probe. The cDNA probe was used for hybridization with Human Exon 1.0 ST Array (Affymetrix). The array was washed and stained, and luminescence intensity was measured by a scanner.
Analysis conditions were reviewed in the data used in Example 3. Genes containing increased introns upon treatment with (8E,12E,14E)-7-((4-cycloheptylpiperazin-1-yl)carbonyl)oxy-3,6,16,21-tetrahydroxy-6,10,12,16,20-pentamethyl-18,19-epoxytricosa-8,12,14-trien-11-olide were identified.
In order to consider the analysis conditions, variations in the data from the samples with identical conditions were studied. […] It turned out that, by analyzing under conditions where the expression level was more than 100 and change in the expression level was more than five times, a probe set with increased expression can be extracted.
Probe sets showing that the normalized change in the level expression of the probe set in the group with the treatment was more than 5 times; the expression level of the probe set and the gene in the group with the treatment were more than 100; and probe set annotation was “extended, full, free”, were picked out. Welch's t-test was conducted with the probe sets extracted for the treated group and the control group to determine a p and q value. A gene containing the probe sets with the q value of less than 5% was determined as a candidate gene with increased expression level of the intron regions (Table 3).
In Table 3, for each gene evaluated, gene name (Gene Name), abbreviated name (Gene Symbol), accession number (Accession), alias name (Synonym), transcription cluster number in Human Exon 1.0 ST Array (Human Exon 1.0 ST Array Transcript Cluster ID), chromosome number (Chromosome), type of strand (Strand), start region (Start), stop region (Stop), and change in expression level (Fold Change) were respectively shown.

Compound: CCC(O)C(C)C1OC1CC(C)(O)/C=C/C=C(\C)C1OC(=O)CC(O)CCC(C)(O)C(OC(=O)N2CCN(C3CCCCCC3)CC2)/C=C/C1C (stereo not drawn) [E7107, (8E,12E,14E)-7-((4-cycloheptylpiperazin-1-yl)carbonyl)oxy-3,6,16,21-tetrahydroxy-6,10,12,16,20-pentamethyl-18,19-epoxytricosa-8,12,14-trien-11-olide]
- Fold Change (gene AMD1, intron expression): 7.90
- Fold Change (gene ANLN, intron expression): 7.90
- Fold Change (gene ANTXR2, intron expression): 7.51
- Fold Change (gene API5, intron expression): 7.77
- Fold Change (gene ATAD2, intron expression): 7.69
- Fold Change (gene ATN1, change in expression level): 14.70
- Fold Change (gene AZIN1, intron expression): 7.51
- Fold Change (gene BAT1 // ATP6V1G2, intron expression): 7.87
- Fold Change (change in expression level of intron probe set) (gene BAZ1B, transcript cluster 3056044): 5.01
- Fold Change (gene BCL7B, intron expression): 7.82
- Fold Change (gene BIRC6, change in expression level): 15.96
- Fold Change (gene BNIP2, change in expression level): 15.96
- Fold Change (change in expression level of intron probe set) (gene BTF3L4, transcript cluster 2336271): 5.01
- Fold Change (gene C1orf160, intron expression): 7.69
- Fold Change (gene C4orf30, intron expression): 7.53
- Fold Change (gene C10orf119, intron expression): 7.55
- Fold Change (gene C11orf57, intron expression): 7.54
- Fold Change (gene C12orf44, intron expression): 7.51
- Fold Change (gene C15orf42, change in expression level): 26.27
- Fold Change (change in expression level of intron probe set) (gene CDCA5, transcript cluster 3377423): 5.02
- Fold Change (gene CENTD1, intron expression): 7.60
- Fold Change (gene CERK, intron expression): 7.52
- Fold Change (gene CGI-09, change in expression level): 16.01
- Fold Change (gene CHCHD3, intron expression): 7.75
- Fold Change (gene CLK3, intron expression): 7.91
- Fold Change (gene CRSP6, intron expression): 7.49
- Fold Change (gene CSNK2A1 // CSNK2A1P, intron expression): 7.87
- Fold Change (gene DDX17, change in expression level): 15.42
- Fold Change (gene DDX18 // WNT8B, intron expression): 7.70
- Fold Change (gene DDX23, change in expression level): 15.78
- Fold Change (gene DEDD, intron expression): 7.89
- Fold Change (gene DPH1 // OVCA2, intron expression): 7.64
- Fold Change (gene EEF1A1, intron expression): 7.70
- Fold Change (gene EEF1B2, intron expression): 7.78
- Fold Change (gene EGFR, intron expression): 7.77
- Fold Change (change in expression level of intron probe set) (gene EIF3S1, transcript cluster 3591963): 5.02
- Fold Change (gene EIF4G2, intron expression): 7.60
- Fold Change (gene FBXL11, intron expression): 7.57
- Fold Change (change in expression level of intron probe set) (gene FBXO28, transcript cluster 2382336): 5.02
- Fold Change (gene FDFT1, intron expression): 7.90
- Fold Change (gene FEN1, change in expression level): 14.75
- Fold Change (gene FOXM1, intron expression): 7.52
- Fold Change (gene GDI1, intron expression): 7.73
- Fold Change (gene GTF2H1, intron expression): 7.62
- Fold Change (gene GTF3C2, intron expression): 7.63
- Fold Change (gene GTPBP4, intron expression): 7.79
- Fold Change (gene HIRA, intron expression): 7.82
- Fold Change (gene HSP90AA1 // HSP90AA2 // HSP90AA6P, intron expression): 7.53
- Fold Change (change in expression level of intron probe set) (gene IDH3B, transcript cluster 3895075): 5.01
- Fold Change (gene ILF3, intron expression): 7.68
- Fold Change (gene IRS2, intron expression): 7.68
- Fold Change (gene ITGB4BP, intron expression): 7.55
- Fold Change (gene ITGB6, intron expression): 7.88
- Fold Change (gene JOSD3 // SNORA25 // SNORA32 // SNORA18, intron expression): 7.81
- Fold Change (gene KCTD10, intron expression): 7.48
- Fold Change (gene KIAA0174, change in expression level): 14.78
- Fold Change (gene KIAA1967, intron expression): 7.49
- Fold Change (gene KITLG, intron expression): 7.58
- Fold Change (gene KLHL18, change in expression level): 15.00
- Fold Change (gene MAP2K3, intron expression): 7.70
- Fold Change (gene MAP3K11, intron expression): 7.77
- Fold Change (gene MKL1, intron expression): 7.93
- Fold Change (change in expression level of intron probe set) (gene MLL5, transcript cluster 3017547): 5.02
- Fold Change (gene MRPL17, intron expression): 7.62
- Fold Change (gene MTF2, intron expression): 7.63
- Fold Change (gene MYST2, intron expression): 7.60
- Fold Change (gene NDUFA5, intron expression): 7.48
- Fold Change (gene NONO, intron expression): 7.64
- Fold Change (gene NOP5/NOP58, intron expression): 7.73
- Fold Change (gene PAK1IP1 // C20orf7, change in expression level): 15.04
- Fold Change (gene PELI1, change in expression level): 27.36
- Fold Change (gene PEX5, intron expression): 7.53
- Fold Change (gene PHF12, intron expression): 7.73
- Fold Change (change in expression level of intron probe set) (gene PIK4CB // RFX5, transcript cluster 2434925): 5.03
- Fold Change (change in expression level of intron probe set) (gene POLR3O, transcript cluster 2432647): 5.01
- Fold Change (gene POMZP3, intron expression): 7.56
- Fold Change (gene PPP6C, intron expression): 7.91
- Fold Change (gene PPRC1, intron expression): 7.86
- Fold Change (gene PRPF40A, intron expression): 7.89
- Fold Change (gene RBM5, intron expression): 7.69
- Fold Change (gene RPS6KB1, intron expression): 7.73
- Fold Change (gene SAFB2, intron expression): 7.64
- Fold Change (gene SAPS3, change in expression level): 15.25
- Fold Change (gene SDCCAG3 // SNAPC4, intron expression): 7.49
- Fold Change (change in expression level of intron probe set) (gene SHB // CKAP2 // MCART1, transcript cluster 3205659): 5.00
- Fold Change (gene SIN3A, intron expression): 7.60
- Fold Change (gene SMAD5, intron expression): 7.77
- Fold Change (gene SNIP1, intron expression): 7.72
- Fold Change (gene SNRP70, intron expression): 7.52
- Fold Change (gene SPOP, intron expression): 7.71
- Fold Change (gene SPRED2, change in expression level): 15.03
- Fold Change (change in expression level of intron probe set) (gene SPTLC2, transcript cluster 3573152): 5.02
- Fold Change (gene STARD7, intron expression): 7.65
- Fold Change (gene STIP1, intron expression): 7.71
- Fold Change (gene SUPV3L1, change in expression level): 14.99
- Fold Change (gene TBC1D10B, intron expression): 7.74
- Fold Change (gene TCP1, intron expression): 7.92
- Fold Change (gene THRAP1, intron expression): 7.84
- Fold Change (gene TMEM2, intron expression): 7.52
- Fold Change (gene TOP1, intron expression): 7.93
- Fold Change (gene TXNDC9 // LYG2, intron expression): 7.69
- Fold Change (gene UBE2J1, intron expression): 7.66
- Fold Change (gene USP36, intron expression): 7.92
- Fold Change (gene VAPA, intron expression): 7.56
- Fold Change (gene WAC, intron expression): 7.92
- Fold Change (gene WDR3, intron expression): 7.63
- Fold Change (gene YIPF3 // C6orf154, intron expression): 7.61
- Fold Change (gene YME1L1, intron expression): 7.84
- Fold Change (gene YTHDF1, intron expression): 7.83
- Fold Change (gene ZNF148, intron expression): 7.69
- Fold Change (gene ZNF473, intron expression): 7.87
